Measured values published in ChEMBL document CHEMBL4184082 (Bioorg Med Chem Lett, 2018).
Values after ≈ are worked out from the molar mass of the structure shown.

Assays:
[1] = AUC (0 to last) in rat at 100 mg/kg; format: ADME, organism-based; set-up: dose 100 mg/kg, time 0 - last; conditions: in vivo
[2] = AUC (0 to last) in rat at 300 mg/kg; format: ADME, organism-based; set-up: dose 300 mg/kg, time 0 - last; conditions: in vivo
[3] = Thermodynamic solubility of the compound; format: physicochemical; conditions: read-out: Therm_solubility
Mus musculus = assay: Reversal of thermal injury-induced muscle damage in C57BL/6 mouse assessed as reduction in Evans blue dye retention time at 10 mg/kg, po administered once daily via gavage treated for 10 days prior to thermal injury on day 4 and subsequent Evans blue dye injection on day 8 measured on day 9 post last dose relative to control; format: functional; set-up: scale not given: the % may be the effect or the level left
Rattus norvegicus [4] = assay: Tumorigenic activity in rat assessed as effect on cell proliferation in non-glandular stomach at 30 mg/kg administered for 14 days measured on post last dose by Ki-67 staining based histopathological analysis relative to control; format: ADME, organism-based; conditions: in vivo, 336 h
Rattus norvegicus [5] = assay: Tumorigenic activity in rat assessed as effect on cell proliferation in non-glandular stomach at 100 mg/kg administered for 14 days measured on post last dose by Ki-67 staining based histopathological analysis relative to control; format: ADME, organism-based; conditions: in vivo, 336 h
Rattus norvegicus [6] = assay: Tumorigenic activity in rat assessed as effect on cell proliferation in non-glandular stomach at 300 mg/kg administered for 6 days and subsequent treatment at 200 mg/kg for 3 days measured on post last dose by Ki-67 staining based histopathological analysis relative to control; format: ADME, organism-based; conditions: in vivo
Rattus norvegicus [7] = assay: Toxicity in rat assessed as reduction in body weight at 300 mg/kg administered for 6 days; format: organism-based; conditions: in vivo, 144 h
Rattus norvegicus [8] = assay: Toxicity in rat assessed as effect on food intake at 300 mg/kg administered for 6 days; format: organism-based; conditions: in vivo, 144 h
[9] = AUC (0 to last) in rat at 30 mg/kg; format: ADME, organism-based; set-up: dose 30 mg/kg, time 0 - last; conditions: in vivo
[10] = AUC (0 to last) in rat at 300 mg/kg measured on day 8; format: ADME, organism-based; set-up: dose 300 mg/kg, time 0 - last; conditions: in vivo

Row | AUC(0-t) [1] | AUC(0-t) [2] | solubility thermodynamic [3] | AUC(0-t) [9] | AUC(0-t) [10] | SMILES | Activity (Mus musculus) | Activity (Rattus norvegicus [4]) | Activity (Rattus norvegicus [5]) | Activity (Rattus norvegicus [6]) | Activity (Rattus norvegicus [7]) | Activity (Rattus norvegicus [8])
1 | 48 µg·h/mL | 201 µg·h/mL |  |  |  | C/C(=C\COc1ccccc1CN(C)C(=O)c1ccc(-c2ccco2)cc1)CCC(=O)O |  |  |  |  |  | 
2 | 613 µg·h/mL |  | 250 µM (≈ 113 µg/mL) | 72 µg·h/mL | 2270 µg·h/mL | Cc1cc(SCc2sc(-c3ccc(C(F)(F)F)cc3)nc2C)ccc1OCC(=O)O [GW501516] | 48% | 34% | 81% | 190% | Toxic | Toxic
